Measurements reported in US10640748B2, “Oligodendroglial cell culturing methods and in methods for treating neurodegenerative disorders by using thyroid hormones or analogues” (NeuOrphan Pty Ltd, priority 2014, dated 2020).

Test system: hESC-derived OPCs
Assay: Stage VI terminal differentiation of hESC-derived OPCs
Assay type: cell-based, human
Experimental: Stage VI; for terminal differentiation, these cells were plated onto poly-L-ornithine (10 μg/mL, Sigma-Aldrich) and mouse laminin (10 μg/mL, Life technologies) coated plates in N2/B27 medium supplemented with T3 (50 ng/mL, Sigma-Aldrich) for 21 days to induce pre-OLs.

SMILES: N[C@@H](Cc1cc(I)c(Oc2ccc(O)c(I)c2)c(I)c1)C(=O)O [T3, Triiodothyronine]
- terminal differentiation of OPCs into O4+ pre-OLs and MBP+ pre-myelinating OLs: promoted terminal differentiation
